US8067620B2, “Dispiro 1,2,4-trioxolane antimalarials” (Medicines for Malaria Venture MMV, priority 2005, dated 2011)

Columns and labels:
[1] = test system: ANKA strain of P. berghei; assay: Single dose in vivo screen in P. berghei-infected NMRI mice; conditions: for Survival (days) 30 mg/kg SSV po / Activity (%) 30 mg/kg SSV po: single 30 mg/kg po dose in SSV one day post-infection; for Activity (%) 30 mg/kg SSV po: percent reduction in parasitemia on day three post-infection; for Cures 30 mg/kg SSV po: single 30 mg/kg po dose in SSV, cure = survival to day 30 post-infection, groups of five mice
Description: Activity of 1,2,4-trioxolanes against P. berghei in vivo. In the single dose in vivo screen, NMRI mice infected with the ANKA strain of P. berghei (groups of five mice) were treated one day post-infection with trioxolanes dissolved or suspended in standard suspending vehicle (SSV). The SSV consists of either 0.5% w/v carboxymethyl cellulose, 0.5% v/v benzyl alcohol, 0.4% v/v Tween 80, and 0.9% w/v sodium chloride in water or 0.5% hydroxypropylmethylcellulose 0.4% v/s Tween 80, and 0.5% v/v benzyl alcohol in water. […] Antimalarial activity was measured by percent reduction in parasitemia on day three post-infection and survival times compared to an untreated control group. Survival to day 30 post-infection is considered to be a cure in this model.

[2] = test system: P. berghei; assay: Prophylactic activity against P. berghei in vivo (mice dosed before infection); conditions: for Cures 24 h prior to infection (30 mg/kg) / Activity (%) 24 h prior to infection (30 mg/kg): single 30 mg/kg oral dose 24 h prior to infection; for Cures 24 h prior to infection (30 mg/kg) / Cures 48 h prior to infection (100 mg/kg) / Cures 72 h prior to infection (100 mg/kg) / Cures 96 h prior to infection (100 mg/kg): n=5 mice; for Activity (%) 24 h prior to infection (30 mg/kg) / Activity (%) 48 h prior to infection (100 mg/kg): parasitemia day 3 post-infection; for Cures 48 h prior to infection (100 mg/kg) / Activity (%) 48 h prior to infection (100 mg/kg): single 100 mg/kg oral dose 48 h prior to infection; for Activity (%) 72 h prior to infection (100 mg/kg) / Cures 72 h prior to infection (100 mg/kg): single 100 mg/kg oral dose 72 h prior to infection; for Activity (%) 96 h prior to infection (100 mg/kg) / Cures 96 h prior to infection (100 mg/kg): single 100 mg/kg oral dose 96 h prior to infection
Description: All groups (n=5 mice per group) including an untreated control group, were infected at the same time and parasitemia was determined for each animal on day 3 post-infection and compared with the level of parasitemia in control animals.

[3] = Blood stability studies in freshly collected rat blood; assay type: in vitro ADME; set-up: unit not given here
Description: Blood stability studies: Compounds were incubated at 37° C. in freshly collected rat blood. At selected time points, duplicate aliquots of the whole blood were sampled, centrifuged and the plasma assayed for parent compound by LC-MS.

[4] = Pharmacokinetic studies in rats (oral); assay type: in vivo, rat; conditions: oral 10 mg/kg; for Oral Bioavailability at 10 mg/kg (%): relative to an IV dose
Description: Pharmacokinetic studies in rats: Compounds were administered orally to rats (n=2) at a dose of 10 mg/kg in a suspension formulation containing hydroxypropylmethyl cellulose, Tween 80, benzyl alcohol, and water. […] Oral bioavailability for each compound was calculated relative to an IV dose for each compound in a suitable vehicle.

Compound	Survival (days) 30 mg/kg SSV po [1] [days]	Activity (%) 30 mg/kg SSV po [1] [%]	Cures 30 mg/kg SSV po [1]	Cures 24 h prior to infection (30 mg/kg) [2]	Activity (%) 24 h prior to infection (30 mg/kg) [2] [%]	Cures 48 h prior to infection (100 mg/kg) [2]	Activity (%) 48 h prior to infection (100 mg/kg) [2] [%]	Stability in Rat Blood (t1/2) at 37° C. [3]	In Vivo Oral t1/2 at 10 mg/kg [4] [h]	Oral Bioavailability at 10 mg/kg (%) [4] [%]	Activity (%) 72 h prior to infection (100 mg/kg) [2] [%]	Cures 72 h prior to infection (100 mg/kg) [2]	Activity (%) 96 h prior to infection (100 mg/kg) [2] [%]	Cures 96 h prior to infection (100 mg/kg) [2]	In Vivo Oral t1/2 at 10 mg/kg ([4]; 10 mg/kg) [h]	Oral Bioavailability at 10 mg/kg (%) ([4]; 10 mg/kg)	Malaria-curative with a single dose ([1]; single dose, dose not stated)
C[C@H]1[C@H](OC(=O)CCC(=O)O)O[C@@H]2O[C@@]3(C)CC[C@H]4[C@H](C)CC[C@@H]1[C@@]24OO3 [AS, artesunate, reference compound]	9.0	92	0/5	0/5	21	0/5	0										
NC[C@H]1CC[C@]2(CC1)OOC1(O2)C2CC3CC(C2)CC1C3 (stereo partly shown) [OZ209, reference compound]								0.8	1.2	12							
NCCOc1ccc([C@H]2CC[C@]3(CC2)OO[C@]2(O3)C3CC4CC(C3)CC2C4)cc1 [OZ323, reference compound]				0/5	99.7	5/5	99.5	7.7	5.2	100	>99.9	1/5	90	0/5			
CS(=O)(=O)O.c1cc([C@H]2CC[C@]3(CC2)OOC2(O3)C3CC4CC(C3)CC2C4)ccc1OC1CCNCC1 (stereo partly shown) [OZ429]	27.8	99.97	4/5	2/5	99.8	5/5	99.8	5.5	5.3	73							
CC(C)(CN)Oc1ccc(C2CCC3(CC2)OOC2(O3)C3CC4CC(C3)CC2C4)cc1.CS(=O)(=O)O (stereo not shown) [OZ453]				0/5	99.9	5/5	99.7	6.1									
CS(=O)(=O)O.c1cc(C2CCC3(CC2)OOC2(O3)C3CC4CC(C3)CC2C4)ccc1OCCN1CCSCC1 (stereo not shown) [OZ460]	25.0	99	3/5	3/5	99.8	5/5	99.6										
CS(=O)(=O)O.c1cc([C@H]2CC[C@]3(CC2)OOC2(O3)C3CC4CC(C3)CC2C4)ccc1OCCCN1CCOCC1 (stereo partly shown) [OZ461]				5/5	99.9	5/5	99.7			71	99.6	5/5	99.4	4/5			
CS(=O)(=O)N1CCN(CCCOc2ccc([C@H]3CC[C@]4(CC3)OOC3(O4)C4CC5CC(C4)CC3C5)cc2)CC1.Cc1ccc(S(=O)(=O)O)cc1 (stereo partly shown) [OZ482]				3/5	>99.9	5/5	>99.9	>17	9.6	100	99.6	4/5	99.6	3/5			
CS(=O)(=O)N1CCN(CCOc2ccc([C@H]3CC[C@]4(CC3)OOC3(O4)C4CC5CC(C4)CC3C5)cc2)CC1.CS(=O)(=O)O (stereo partly shown) [OZ485]				3/5	>99.9	5/5	>99.9										
O=C1CCC([C@H]2CC[C@]3(CC2)OOC2(O3)C3CC4CC(C3)CC2C4)CC1 (stereo partly shown) [OZ495]	26.8	99.3	3/5	1/5	>99.9	0/5	>99.9										
CS(=O)(=O)O.NCCCCCOc1ccc(C2CCC3(CC2)OOC2(O3)C3CC4CC(C3)CC2C4)cc1 (stereo not shown) [OZ498]				4/5	99.8	5/5	99.8										
CC(C)(O)CNCCCOc1ccc([C@H]2CC[C@]3(CC2)OOC2(O3)C3CC4CC(C3)CC2C4)cc1.Cc1ccc(S(=O)(=O)O)cc1 (stereo partly shown) [OZ505]				2/5	>99.9	5/5	99.5										
O[C@H]1CC[C@@H](C2CCC3(CC2)OOC2(O3)C3CC4CC(C3)CC2C4)CC1 (stereo partly shown) [OZ508]	24.4	99.8	3/5	4/5	99.7	4/5	99.8										
OC1CCN(CCOc2ccc([C@H]3CC[C@]4(CC3)OOC3(O4)C4CC5CC(C4)CC3C5)cc2)CC1 (stereo partly shown) [OZ513]				1/5	99.9	5/5	99.7										
Cc1ccc(S(=O)(=O)O)cc1.O[C@H]1CC[C@H](NCCCOc2ccc([C@H]3CC[C@]4(CC3)OOC3(O4)C4CC5CC(C4)CC3C5)cc2)CC1 (stereo partly shown) [OZ535]				0/5	>99.9	5/5	>99.9										
CS(=O)(=O)O.NC1CCC(Oc2ccc(C3CCC4(CC3)OOC3(O4)C4CC5CC(C4)CC3C5)cc2)CC1 (stereo not shown) [OZ537]				5/5	>99.9	5/5	>99.9	>17							11.8	29	
CC(C)(N)CCOc1ccc(C2CCC3(CC2)OOC2(O3)C3CC4CC(C3)CC2C4)cc1.Cc1ccc(S(=O)(=O)O)cc1 (stereo not shown) [OZ539]	25.2	99.7	3/5	4/5	>99.9	5/5	>99.9										malaria-curative in some instances with a single dose
